In patent US8609672B2, “Piperazinylpyrimidine analogues as protein kinase inhibitors” (University of the Pacific, priority 2010, dated 2013):

target: KIT (Homo sapiens, UniProt P10721); details: KIT wild-type; reference kinase inhibitors, from literature; cited from earlier work
Sequence (P10721 26-976): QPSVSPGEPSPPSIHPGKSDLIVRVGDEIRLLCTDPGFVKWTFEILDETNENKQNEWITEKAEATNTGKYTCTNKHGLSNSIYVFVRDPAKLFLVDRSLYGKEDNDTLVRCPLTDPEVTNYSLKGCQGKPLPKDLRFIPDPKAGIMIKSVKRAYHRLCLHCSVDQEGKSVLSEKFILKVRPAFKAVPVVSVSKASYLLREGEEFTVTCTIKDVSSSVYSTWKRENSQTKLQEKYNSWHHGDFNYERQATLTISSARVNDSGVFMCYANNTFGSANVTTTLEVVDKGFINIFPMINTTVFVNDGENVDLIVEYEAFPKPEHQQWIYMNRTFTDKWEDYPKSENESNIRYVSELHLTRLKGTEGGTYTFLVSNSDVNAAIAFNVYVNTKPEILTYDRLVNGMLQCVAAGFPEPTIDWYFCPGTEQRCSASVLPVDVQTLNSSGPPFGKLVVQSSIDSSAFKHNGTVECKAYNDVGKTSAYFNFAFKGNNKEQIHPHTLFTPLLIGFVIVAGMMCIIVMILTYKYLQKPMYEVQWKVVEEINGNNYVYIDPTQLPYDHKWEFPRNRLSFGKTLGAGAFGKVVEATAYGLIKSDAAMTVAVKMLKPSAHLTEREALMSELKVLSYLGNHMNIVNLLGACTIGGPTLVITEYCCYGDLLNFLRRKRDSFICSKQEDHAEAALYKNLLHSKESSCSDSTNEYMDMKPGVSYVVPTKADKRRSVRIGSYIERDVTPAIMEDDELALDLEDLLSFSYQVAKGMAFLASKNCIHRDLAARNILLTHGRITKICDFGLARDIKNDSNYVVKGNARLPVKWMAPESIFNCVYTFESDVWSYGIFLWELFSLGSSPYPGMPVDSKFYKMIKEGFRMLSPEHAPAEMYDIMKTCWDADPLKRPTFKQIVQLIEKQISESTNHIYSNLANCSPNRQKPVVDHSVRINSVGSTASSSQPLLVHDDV

| SMILES | Kd |
| --- | --- |
| COCC(=O)NC/C=C/c1ccc2ncnc(Nc3ccc(Oc4ccc(C)nc4)c(C)c3)c2c1 [CP-724714] | > 10000 nM |
| CCOc1cc2ncc(C#N)c(Nc3ccc(F)c(Cl)c3)c2cc1NC(=O)/C=C/CN(C)C [EKB-569] | > 10000 nM |
| Oc1ccc(-c2nc(-c3ccc(F)cc3)c(-c3ccncc3)[nH]2)cc1 [SB-202190] | > 10000 nM |

same assay, conditions: cited from earlier work

| SMILES | Kd |
| --- | --- |
| NC(=O)c1ccc(-c2nc(-c3ccccn3)c(-c3ccc4c(c3)OCO4)[nH]2)cc1 [SB-431542] | > 10000 nM |

tested on: not given; details: not given

| melting point | SMILES |
| --- | --- |
| > 250 °C | CCc1cnc(N2CCN(c3ncnc4ccccc34)CC2)nc1 [Compound 3, 4-(4-(5-ethylpyrimidin-2-yl)piperazin-1-yl)quinazoline] |
| 137 to 138 °C | CCc1cnc(N2CCN(c3nc(-c4ccccc4)nc4ccccc34)CC2)nc1 [Compound 5, 4-(4-(5-ethylpyrimidin-2-yl)piperazin-1-yl)-2-phenylquinazoline] |
| 135 to 137 °C | c1ccc(Cc2cnc(N3CCN(c4nc(-c5ccccc5)nc5ccccc45)CC3)nc2)cc1 [Compound 6, 4-(4-(5-benzylpyrimidin-2-yl)piperazin-1-yl)-2-phenylquinazoline] |
| 146 to 147 °C | CCc1cnc(N2CCN(C(=O)c3cccc(Nc4ncnc5ccccc45)c3)CC2)nc1 [Compound 13, (4-(5-ethylpyrimidin-2-yl)piperazin-1-yl)(3-(quinazolin-4-ylamino)phenyl)methanone] |
| 248 to 249 °C | CCc1cnc(N2CCN(C(=O)c3ccc(Nc4ncnc5ccccc45)cc3)CC2)nc1 [Compound 14, (4-(5-ethylpyrimidin-2-yl)piperazin-1-yl)(4-(quinazolin-4-ylamino)phenyl)methanone] |
| 245 to 247 °C | O=C(c1ccc(Nc2ncnc3ccccc23)cc1)N1CCN(c2ncc(Cc3ccccc3)cn2)CC1 [Compound 17, (4-(5-benzylpyrimidin-2-yl)piperazin-1-yl)(4-(quinazolin-4-ylamino)phenyl)methanone] |
| 99 to 101 °C | O=C(c1ccc(CNc2ncnc3ccccc23)cc1)N1CCN(c2ncc(Cc3ccccc3)cn2)CC1 [Compound 18, (4-(5-benzylpyrimidin-2-yl)piperazin-1-yl)(4-((quinazolin-4-ylamino)methyl)phenyl)methanone] |
| 204 to 205 °C | CCc1cnc(N2CCN(C(=O)c3ccccc3NC3=c4ccccc4=NCN3c3ccccc3)CC2)nc1 [Compound 19, (4-(5-ethylpyrimidin-2-yl)piperazin-1-yl)(2-(3-phenylquinazolin-4-ylamino)phenyl)methanone] |
| > 250 °C | CCc1cnc(N2CCN(C(=O)c3ccccc3NC3(c4ccccc4)NC=Nc4ccccc43)CC2)nc1 (centres unmarked) [Compound 20, (4-(5-ethylpyrimidin-2-yl)piperazin-1-yl)(2-(4-phenylquinazolin-4-ylamino)phenyl)methanone] |
| 207 to 208 °C | CCc1cnc(N2CCN(C(=O)c3ccc(CNc4nc(-c5ccccc5)nc5ccccc45)cc3)CC2)nc1 [Compound 21, (4-(5-ethylpyrimidin-2-yl)piperazin-1-yl)(4-((2-phenylquinazolin-4ylamino)methyl)phenyl)methanone] |
| 214 to 215 °C | O=C(c1cccc(Nc2nc(-c3ccccc3)nc3ccccc23)c1)N1CCN(c2ncc(Cc3ccccc3)cn2)CC1 [Compound 22, (4-(5-benzylpyrimidin-2-yl)piperazin-1-yl)(3-(2-phenylquinazolin-4ylamino)phenyl)methanone] |
| > 250 °C | O=C(c1ccc(Nc2nc(-c3ccccc3)nc3ccccc23)cc1)N1CCN(c2ncc(Cc3ccccc3)cn2)CC1 [Compound 23, (4-(5-benzylpyrimidin-2-yl)piperazin-1-yl)(4-(2-phenylquinazolin-4ylamino)phenyl)methanone] |
| 216 to 217 °C | O=C(c1ccc(CNc2nc(-c3ccccc3)nc3ccccc23)cc1)N1CCN(c2ncc(Cc3ccccc3)cn2)CC1 [Compound 24, (4-(5-benzylpyrimidin-2-yl)piperazin-1-yl)(4-((2-phenylquinazolin-4-ylamino)methyl)phenyl)methanone] |
